In publication PMC5659136, “Peptide mimetics of immunoglobulin A (IgA) and FcαRI block IgA‐induced human neutrophil activation and migration” (European Journal of Immunology, 2017):
Positions of bridges follow the written chain, without caps; N, C: chain ends. No end group written: not given here.

Tests used:
neutrophils [1] = assay: In vitro neutrophil migration to IgA-coated beads; assay type: cell-based, human; conditions: fluorimeter; for block of IgA-induced neutrophil migration (in words): oxidated or small cyclic peptides, 3 independent experiments in triplicates, Supporting Information Fig. 2
Description: Figure 3 Peptide mimetics block IgA‐induced migration in vitro. Percentage of migration of fluorescently labelled neutrophils to IgA‐coated beads, either in the presence or absence of peptide mimetics. The number of migrated neutrophils was determined with a fluorimeter. Neutrophil migration to IgA was normalized to 100% (dotted line). Neutrophils or beads were pre‐incubated with (A) linear or (B) cyclic peptides mimicking FcαRI‐sequences (white bars) or IgA‐sequences (black bars). Data are representative of three independent experiments, performed in triplicates. Mean ± SD is shown. Statistical analysis: ANOVA *p< 0.05, **p < 0.01.
(§1) In vitro migration assays were performed as previously described 4. All experiments were performed in triplo. Migration towards IL‐8 (30 ng/mL) was measured after pre‐incubating neutrophils with peptides (1 μg/mL) or anti‐IL‐8 blocking antibody (10 μg/mL, Pharmingen).
Supporting Information Figure 2 […]
Percentage of migration of fluorescently labelled neutrophil to IgA-coated beads, either in the presence or absence of peptide mimetics. The number of migrated neutrophils was determined with a fluorimeter. Neutrophil migration to IgA was normalized to 100% (dotted line). Neutrophils or beads were pre-incubated with (A) oxidated or (B) small cyclic peptides mimicking FcαRI-sequences (white bars) or IgA-sequences (black bars). Data are representative of 3 independent experiments, performed in triplicates. Mean ± SD of one representative experiment is shown. Statistical analysis: ANOVA

neutrophils [2] = assay: IL-8 induced chemotaxis of neutrophils; assay type: cell-based, human; conditions: IL-8 30 ng/mL; neutrophils pre-incubated with peptides 1 μg/mL; fluorimeter; three times in triplo; Supporting Information Fig. 3
Description: as §1
Supporting Information Figure 3 […]
medium IL-8anti-IL-8IgA1-linFcĮRI1-linFcĮRI9-ox
Number of fluorescently labelled neutrophils which migrated to IL-8 in a chemotaxis chamber, either in the presence or absence of peptide mimetics. The number of migrated neutrophils was determined with a fluorimeter. Neutrophil migration to IL-8 is indicated with a dotted line.
Medium and blocking IL-8 antibody (anti-IL-8) were used as controls. Experiments were performed three times in triplo. Mean ± SD of one representative experiments in triplo is shown.
Statistical analysis: ANOVA

neutrophils [3] = assay: Ex vivo human skin migration assay (IgA-coated beads injected in the dermis); assay type: cell-based; conditions: full thickness human skin grafts; peptide 1 μg/mL, pre-incubation 20 min, 4°C; incubated overnight (24 h) at 37°C; fluorescence microscopy; three independent experiments in duplicate; Fig. 4
Source text: To mimic blocking of neutrophil migration toward aberrant IgA‐antigen complexes in the skin, an ex vivo migration assay was established. […] No influx toward BSA‐coated beads was observed, whereas massive influx of neutrophils toward the injected IgA‐coated beads was observed (Fig 4A).
Figure 4 Peptide mimetics block neutrophil migration and penetrate the dermis in an ex vivo human skin model. Migration of green‐fluorescent neutrophils to BSA‐ (left panel) or IgA‐ (right panel) coated beads (indicated with circles) in the dermis of ex vivo skin explants (A). Migration of green‐fluorescent neutrophils to IgA‐coated beads (indicated with circles) after pre‐incubation with non‐blocking peptide FcαRI9‐ox (B), linear peptides (C) or cyclic CLIPS‐peptides (D). Images are representative of three independent experiments, performed in duplicate. Scale bar = 250 μm. Images are 10× magnified.
For ex vivo human skin migration assays, full thickness mammary skin grafts (epidermis and dermis) were placed in an ex vivo tissue incubation chamber with the dermis face up 6, 49. IgA‐coated beads were pre‐incubated with FcαRI‐peptides (1 μg/mL, 20 min, 4°C) and injected intracutaneously via the dermis. BSA‐coated beads were used for control. Next, PKH‐67 labeled neutrophils (4 × 10^6 cells/well) were added on the dermis. Alternatively, IgA‐coated beads were injected intracutaneously and PKH‐67 labeled neutrophils (4 × 10^6 cells/well) that were pre‐incubated with IgA‐peptides (1 μg/mL, 20 min, 4°C) were added onto the dermis. Cells were supplemented with IFN‐γ to prevent early apoptosis (300 units/mL; Boehringer Ingelheim, Ingelheim am Rhein, Germany). Skin was incubated overnight at 37°C, after which biopsies of the injected skin were taken and snap frozen. Cryosections of 6 μm were analysed with a Nikon eclipse e800 (Nikon instruments Europe BV, Amsterdam, The Netherlands).

[4] = test system: IgA binding to FcαRI (on neutrophils); assay: Ligand binding assay: neutrophil binding to IgA-coated plates; assay type: cell-based; conditions: peptide 1 μg/mL, pre-incubation 20 min, 4°C, calcein labeled human neutrophils 2.5 × 10^5 cells/well, 37°C, fluorimeter, three independent experiments in triplicates, Fig. 1
Description: Figure 1 Peptide mimetics inhibit IgA binding to FcαRI. Percentage of ligand binding between IgA and FcαRI (on neutrophils), either in the presence or absence of peptide mimetics. Fluorescently labelled human neutrophils, isolated from blood, were added to IgA‐coated plates, and the number of neutrophils attaching to the plate was measured with a fluorimeter. IgA binding to FcαRI was normalized to 100% (indicated with dotted line). Neutrophils or plates were pre‐incubated with either linear peptides (A) or cyclic CLIPS‐peptides (B) mimicking FcαRI‐sequences (white bars) or IgA‐sequences (black bars). Data are representative of three independent experiments, performed in triplicates. Mean is shown, error bars refer to SD (n = 3). Statistical analysis: ANOVA*p< 0.05, **p < 0.01.
Neutrophils were isolated from heparinized peripheral human blood from healthy donors after informed consent was given, using standard Lymphoprep (Axis‐shield, Dundee, Scotland) density gradient centrifugation. […]
Plates (Nunc‐ImmunoMaxiSorp™, Roskilde, Denmark) were coated with IgA, or BSA (as control) (10 μg/mL, 3 h, 37°C), washed and pre‐incubated with FcαRI‐peptides (1 μg/mL, 20 min, 4°C). […] Attached cells were lysed and fluorescence of supernatant was measured with a fluorimeter (485 nm excitation/520 nm emission filters; Fluostar Galaxy, BMG Labtechnologies, Offenburg, Germany), as measure of binding. […]

Substance | block of IgA-induced neutrophil migration (in words) (neutrophils [1]) | neutrophil migration to IgA-coated beads in ex vivo human skin (neutrophils [3]) | further results
CEALPLAFTCKT (also: sidechain bridge or staple (positions not given here)) [IgA2‐CLIPS] | do not block | – | –
CHYRFRC (also: sidechain bridge or staple (positions not given here)) [FcαRI3‐CLIPS] | do not block | – | –
GRYQAQCRIGHYRFCYSD (disulfide 7-15 (inferred)) [FcαRI9‐ox] | do not block | did not inhibit | effect on IL-8 induced chemotaxis (neutrophils [2]): do not block
RYQAQCRIGHYRFC (disulfide 6-14 (inferred)) [FcαRI6‐ox] | do not block | – | –
SCEALPLAFTCKT (also: sidechain bridge or staple (positions not given here)) [IgA3‐CLIPS] | do not block | – | –
SSCVGHEALPLAFTCKT (also: sidechain bridge or staple (positions not given here)) [IgA7‐CLIPS] | – | fully abrogated | –
SSCVGHEALPLAFTCKT (disulfide 3-15 (inferred)) [IgA7‐ox] | do not block | – | –
SSMCGHEALPLAFCQKT (disulfide 4-14 (inferred)) [IgA6‐ox] | do not block | – | –
SSMVGHEALPLAFTQKT [IgA1‐lin] | – | completely blocked | blocking of neutrophil binding to IgA-coated wells [4]: approximately 50%; block of neutrophil migration to IgA-coated beads (neutrophils [1]; neutrophils or beads pre-incubated with peptides, three independent experiments in triplicates, Fig. 3): 60–80%; effect on IL-8 induced chemotaxis (neutrophils [2]): do not block
YQACHYRFRC (also: sidechain bridge or staple (positions not given here)) [FcαRI5‐CLIPS] | do not block | – | –
